Measured values reported in publication PMC10023787, “Trio-pharmacophore DNA-encoded chemical library for simultaneous selection of fragments and linkers” (Nature Communications, 2023).
Read-outs that look alike come from different tables or passages of the source.

What was measured:
MMP-9 = biological target: T1, MMP-9 (Homo sapiens, UniProt P14780); experiment: MMP-9 inhibition assay (fluorogenic peptide substrate); type: biochemical; design: remaining enzyme activity (% of control): scale not given here; details: for remaining enzyme activity (% of control): MMP-9; for IC50: n.d: not detected
T1 construct: purchased Sino Biological 10327-HNAH
T1 sequence (P14780 107-707 limits assumed): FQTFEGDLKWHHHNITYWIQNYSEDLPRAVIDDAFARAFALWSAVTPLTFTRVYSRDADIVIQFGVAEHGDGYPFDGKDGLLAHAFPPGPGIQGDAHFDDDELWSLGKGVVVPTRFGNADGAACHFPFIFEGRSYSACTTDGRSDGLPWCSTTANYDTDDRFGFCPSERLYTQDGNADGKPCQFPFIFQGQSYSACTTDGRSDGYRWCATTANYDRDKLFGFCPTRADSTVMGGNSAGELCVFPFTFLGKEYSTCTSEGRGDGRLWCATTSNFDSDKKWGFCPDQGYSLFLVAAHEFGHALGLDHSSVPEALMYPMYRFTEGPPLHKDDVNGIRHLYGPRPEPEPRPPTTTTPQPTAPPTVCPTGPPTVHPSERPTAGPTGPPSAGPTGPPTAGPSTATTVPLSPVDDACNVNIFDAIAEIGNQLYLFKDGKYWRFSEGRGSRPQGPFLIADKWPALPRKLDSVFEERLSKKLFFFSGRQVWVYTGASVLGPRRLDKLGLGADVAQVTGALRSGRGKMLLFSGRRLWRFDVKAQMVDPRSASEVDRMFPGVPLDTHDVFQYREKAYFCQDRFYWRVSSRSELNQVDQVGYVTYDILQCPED
Experimental: (§1) The inhibition by the small molecule compounds against MMP-2/MMP-9 was measured using an assay probing the enzyme proteolytic activity on the substrate DNP-Pro-Leu-Gly-Met-Trp-Ser-Arg (Enzo Life Sciences, USA). All assays were performed in the assay buffer containing 50 mM Tris, 100 mM NaCl. 5 mM CaCl2, and 0.1% Brij 35, pH 7.5. Human proMMP-2 and proMMP-9 were purchased from Sino biological (Germany). The proMMPs were activated by 1 mM APMA in the assay buffer at 37 °C for 2 h. After activation, MMP-2 was diluted to 6.5 nM of final assay concentration, and MMP-9 was diluted by the buffer to reach 10 nM of final assay concentration. In each well, 49 μl of enzyme solution was incubated with 1 μl of compounds of series of concentration (nM-mM in DMSO) at RT for 30 min. 2 μl of the FRET substrate was added right before the measurement at a final concentration of 25 μM. The rate of hydrolysis was monitored by quantifying the emission at 360 nm (ex: 280 nm). The emission was measured with intervals of the 30 s for 30 min with Synergy H1 Plate Reader (Agilent, USA). The measurements were done in triplicate. […] Then, curves were plotted as a function of the concentration of the inhibitor against the relative enzyme activity. Vmax was derived from the detected […] signal for each concentration and logistic fitting was performed to obtain IC50 values using Origin 2019b (OriginLab).

MMP-2 = biological target: T2, MMP-2 (Homo sapiens, UniProt P08253); experiment: MMP-2 inhibition assay (fluorogenic peptide substrate); type: biochemical; details: for remaining activity (%): MMP-2; for IC50: n.d: not detected
T2 construct: purchased Sino Biological 10082-HNAH
T2 sequence (P08253 110-660): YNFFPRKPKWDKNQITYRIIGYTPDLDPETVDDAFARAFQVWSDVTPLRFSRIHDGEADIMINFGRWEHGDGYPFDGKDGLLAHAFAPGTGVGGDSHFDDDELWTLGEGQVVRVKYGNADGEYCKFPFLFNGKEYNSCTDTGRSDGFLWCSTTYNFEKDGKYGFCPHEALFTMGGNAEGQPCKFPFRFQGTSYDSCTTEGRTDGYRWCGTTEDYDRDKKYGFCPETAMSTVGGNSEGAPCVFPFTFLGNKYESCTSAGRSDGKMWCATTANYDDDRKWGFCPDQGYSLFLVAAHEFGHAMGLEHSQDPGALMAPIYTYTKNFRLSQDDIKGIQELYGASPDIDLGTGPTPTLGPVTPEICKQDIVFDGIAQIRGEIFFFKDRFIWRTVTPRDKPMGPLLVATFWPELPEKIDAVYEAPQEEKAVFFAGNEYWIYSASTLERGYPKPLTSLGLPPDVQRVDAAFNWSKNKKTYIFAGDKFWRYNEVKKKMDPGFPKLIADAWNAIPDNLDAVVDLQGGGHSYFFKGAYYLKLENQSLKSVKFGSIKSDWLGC
Experimental: as §1

[1] = mean ± SE, Fig. 5d unit inferred, µM, read-out: IC50
[2] = Figure 5d, fragment combination joined by linker, read-out: MMP2 IC50
[3] = Figure 5d, fragment combination joined by linker, read-out: MMP9 IC50

O=C(CNC(=O)NC12CC3CC(CC(C3)C1)C2)NCc1c[nH]nn1 [66+787 Linker 1]
remaining enzyme activity (% of control) (MMP-9; concentration 0.08 µM): 90.03
remaining enzyme activity (% of control) (MMP-9; concentration 0.39 µM): 107.83
remaining enzyme activity (% of control) (MMP-9; concentration 1.95 µM): 106.33
remaining enzyme activity (% of control) (MMP-9; concentration 9.75 µM): 95.98
remaining enzyme activity (% of control) (MMP-9; concentration 48.76 µM): 92.70
remaining enzyme activity (% of control) (MMP-9; concentration 243.80 µM): 85.14
remaining enzyme activity (% of control) (MMP-9; concentration 1219.00 µM): 78.29
remaining activity (%) (MMP-2; concentration 0.0156 µM): 93.33
remaining activity (%) (MMP-2; concentration 0.08 µM): 91.88
remaining activity (%) (MMP-2; concentration 0.39 µM): 89.28
remaining activity (%) (MMP-2; concentration 1.95 µM): 98.93
remaining activity (%) (MMP-2; concentration 9.75 µM): 95.17
remaining activity (%) (MMP-2; concentration 48.76 µM): 89.24
remaining activity (%) (MMP-2; concentration 243.80 µM): 91.48
remaining activity (%) (MMP-2; concentration 1219.00 µM): 64.77

O=C(CCCCCCC(=O)NCC12CC3CC(CC(C3)C1)C2)NCc1c[nH]nn1 [66+787 Linker 4]
remaining enzyme activity (% of control) (MMP-9; concentration 0.08 µM): 101.70
remaining enzyme activity (% of control) (MMP-9; concentration 0.39 µM): 95.25
remaining enzyme activity (% of control) (MMP-9; concentration 1.95 µM): 95.00
remaining enzyme activity (% of control) (MMP-9; concentration 9.75 µM): 100.64
remaining enzyme activity (% of control) (MMP-9; concentration 48.76 µM): 91.07
remaining enzyme activity (% of control) (MMP-9; concentration 243.80 µM): 93.01
remaining enzyme activity (% of control) (MMP-9; concentration 1219.00 µM): 79.78
remaining activity (%) (MMP-2; concentration 0.0156 µM): 93.57
remaining activity (%) (MMP-2; concentration 0.08 µM): 87.26
remaining activity (%) (MMP-2; concentration 0.39 µM): 84.29
remaining activity (%) (MMP-2; concentration 1.95 µM): 79.19
remaining activity (%) (MMP-2; concentration 9.75 µM): 76.03
remaining activity (%) (MMP-2; concentration 48.76 µM): 60.10
remaining activity (%) (MMP-2; concentration 243.80 µM): 68.09
remaining activity (%) (MMP-2; concentration 1219.00 µM): 72.50

O=C(CCC(=O)NCc1c[nH]nn1)NCCOCCOCCNC(=O)CNC(=O)NC12CC3CC(CC(C3)C1)C2 [66+787 Linker 10]
remaining enzyme activity (% of control) (MMP-9; concentration 0.07 µM): 99.26
remaining enzyme activity (% of control) (MMP-9; concentration 0.33 µM): 98.95
remaining enzyme activity (% of control) (MMP-9; concentration 1.67 µM): 95.42
remaining enzyme activity (% of control) (MMP-9; concentration 8.34 µM): 94.84
remaining enzyme activity (% of control) (MMP-9; concentration 41.72 µM): 86.90
remaining enzyme activity (% of control) (MMP-9; concentration 208.60 µM): 67.40
remaining enzyme activity (% of control) (MMP-9; concentration 1043.00 µM): 51.64
remaining activity (%) (MMP-2; concentration 0.07 µM): 89.74
remaining activity (%) (MMP-2; concentration 0.33 µM): 85.09
remaining activity (%) (MMP-2; concentration 1.67 µM): 89.74
remaining activity (%) (MMP-2; concentration 8.34 µM): 82.52
remaining activity (%) (MMP-2; concentration 41.72 µM): 81.27
remaining activity (%) (MMP-2; concentration 208.60 µM): 74.95
remaining activity (%) (MMP-2; concentration 1043.00 µM): 25.65
remaining activity (%) (MMP-2; concentration […]): 97.97
IC50 (MMP-2; [1]): 578 ± 96 µM

O=C(/C=C/CCCCC(=O)NCc1c[nH]nn1)CC(=O)NCC12CC3CC(CC(C3)C1)C2 [66+787 Linker 12]
remaining enzyme activity (% of control) (MMP-9; concentration 0.0553 µM): 94.85
remaining enzyme activity (% of control) (MMP-9; concentration 0.28 µM): 91.07
remaining enzyme activity (% of control) (MMP-9; concentration 1.38 µM): 90.00
remaining enzyme activity (% of control) (MMP-9; concentration 6.91 µM): 80.21
remaining enzyme activity (% of control) (MMP-9; concentration 34.57 µM): 81.44
remaining enzyme activity (% of control) (MMP-9; concentration 172.86 µM): 37.12
remaining enzyme activity (% of control) (MMP-9; concentration 864.30 µM): 14.22
IC50 (MMP-9; mean ± SE, Fig. 5e prints no unit, µM, read-out: IC50): 115 ± 78.3 µM
remaining activity (%) (MMP-2; concentration 0.0111 µM): 95.55
remaining activity (%) (MMP-2; concentration 0.0553 µM): 86.42
remaining activity (%) (MMP-2; concentration 0.28 µM): 84.28
remaining activity (%) (MMP-2; concentration 1.38 µM): 96.70
remaining activity (%) (MMP-2; concentration 6.91 µM): 90.43
remaining activity (%) (MMP-2; concentration 34.57 µM): 98.71
remaining activity (%) (MMP-2; concentration 172.86 µM): 67.90
remaining activity (%) (MMP-2; concentration 864.30 µM): 16.96
IC50 (MMP-2; [1]): 339 ± 63.3 µM

O=C(CNC(=O)NC12CC3CC(CC(C3)C1)C2)NCCSCC(=O)NCc1c[nH]nn1 [66+787 Linker 24]
remaining enzyme activity (% of control) (MMP-9; concentration 0.08 µM): 99.22
remaining enzyme activity (% of control) (MMP-9; concentration 0.39 µM): 101.28
remaining enzyme activity (% of control) (MMP-9; concentration 1.95 µM): 105.60
remaining enzyme activity (% of control) (MMP-9; concentration 9.75 µM): 109.06
remaining enzyme activity (% of control) (MMP-9; concentration 48.76 µM): 90.00
remaining enzyme activity (% of control) (MMP-9; concentration 243.80 µM): 81.70
remaining enzyme activity (% of control) (MMP-9; concentration 1219.00 µM): 47.95
remaining activity (%) (MMP-2; concentration 0.0156 µM): 107.17
remaining activity (%) (MMP-2; concentration 0.08 µM): 100.74
remaining activity (%) (MMP-2; concentration 0.39 µM): 89.54
remaining activity (%) (MMP-2; concentration 1.95 µM): 101.35
remaining activity (%) (MMP-2; concentration 9.75 µM): 92.40
remaining activity (%) (MMP-2; concentration 48.76 µM): 87.86
remaining activity (%) (MMP-2; concentration 243.80 µM): 72.74
remaining activity (%) (MMP-2; concentration 1219.00 µM): 41.09
IC50 (MMP-2; [1]): 861 ± 97.2 µM

Cn1c(O)nc2cc(C(=O)NCC34CC5CC(CC(C5)C3)C4)cnc21 [66+826 Linker 1]
remaining enzyme activity (% of control) (MMP-9; concentration 0.12 µM): 90.98
remaining enzyme activity (% of control) (MMP-9; concentration 0.49 µM): 79.87
remaining enzyme activity (% of control) (MMP-9; concentration 1.95 µM): 80.91
remaining enzyme activity (% of control) (MMP-9; concentration 7.81 µM): 80.18
remaining enzyme activity (% of control) (MMP-9; concentration 31.25 µM): 77.01
remaining enzyme activity (% of control) (MMP-9; concentration 125.00 µM): 59.34
remaining enzyme activity (% of control) (MMP-9; concentration 500.00 µM): 44.40
remaining activity (%) (MMP-2; concentration 0.12 µM): 104.18
remaining activity (%) (MMP-2; concentration 0.49 µM): 97.92
remaining activity (%) (MMP-2; concentration 1.95 µM): 99.61
remaining activity (%) (MMP-2; concentration 7.81 µM): 91.81
remaining activity (%) (MMP-2; concentration 31.25 µM): 84.92
remaining activity (%) (MMP-2; concentration 125.00 µM): 90.24
remaining activity (%) (MMP-2; concentration 500.00 µM): 77.04

Cn1c(O)nc2cc(C(=O)NCCCCCCCCNC(=O)CNC(=O)NC34CC5CC(CC(C5)C3)C4)cnc21 [66+826 Linker 4]
remaining enzyme activity (% of control) (MMP-9; concentration 0.12 µM): 93.59
remaining enzyme activity (% of control) (MMP-9; concentration 0.49 µM): 93.14
remaining enzyme activity (% of control) (MMP-9; concentration 1.95 µM): 89.16
remaining enzyme activity (% of control) (MMP-9; concentration 7.81 µM): 98.12
remaining enzyme activity (% of control) (MMP-9; concentration 31.25 µM): 95.00
remaining enzyme activity (% of control) (MMP-9; concentration 125.00 µM): 90.00
remaining enzyme activity (% of control) (MMP-9; concentration 500.00 µM): 85.00
remaining activity (%) (MMP-2; concentration 0.12 µM): 90.87
remaining activity (%) (MMP-2; concentration 0.49 µM): 97.75
remaining activity (%) (MMP-2; concentration 1.95 µM): 98.21
remaining activity (%) (MMP-2; concentration 7.81 µM): 97.67
remaining activity (%) (MMP-2; concentration 31.25 µM): 98.57
remaining activity (%) (MMP-2; concentration 125.00 µM): 99.42
remaining activity (%) (MMP-2; concentration 500.00 µM): 77.03

O=C(CCC(=O)NCc1c[nH]nn1)NCCOCCOCCNC(=O)CNC(=O)NC12CC3CC(CC(C3)C1)C2 [66_787 10]
IC50 (MMP-2; [2]): 578 µM

O=C(CNC(=O)NC12CC3CC(CC(C3)C1)C2)NCCSCC(=O)NCc1c[nH]nn1 [66_787 24]
IC50 (MMP-2; [2]): 861 µM

Cn1c(O)nc2cc(C(=O)NCC34CC5CC(CC(C5)C3)C4)cnc21 [66_826 1]
IC50 (MMP-9; [3]): 234 µM

O=C(CNC(=O)NC12CC3CC(CC(C3)C1)C2)NCCCCCCCCNC(=O)c1cncc(O)c1 [66_828 4]
IC50 (MMP-9; [3]): 247 µM

Cn1c(O)nc2cc(C(=O)NCCCCCCCCNC(=O)Cn3cnc4c(oc5ccccc54)c3=O)cnc21 [182_826 4]
IC50 (MMP-2; [2]): 439 µM

Cn1c(O)nc2cc(C(=O)NCCOCCOCCNC(=O)Cn3cnc4c(oc5ccccc54)c3=O)cnc21 [182_826 10]
IC50 (MMP-9; [3]): 283 µM

Cn1c(O)nc2cc(C(=O)NCCNC(=O)CSCCNC(=O)Cn3cnc4c(oc5ccccc54)c3=O)cnc21 [182_826 24]
IC50 (MMP-9; [3]): 281 µM
